Measured values from ChEMBL document CHEMBL1144380, “Furanyl-1,3-thiazol-2-yl and benzoxazol-5-yl acetic acid derivatives: novel classes of heparanase inhibitor” (Bioorg Med Chem Lett, 2005).

How the values were obtained:
[1] = target: T1, Heparanase (Homo sapiens, UniProt Q9Y251); experiment: In vitro inhibitory concentration against human Heparanase
T1 sequence (Q9Y251 whole entry): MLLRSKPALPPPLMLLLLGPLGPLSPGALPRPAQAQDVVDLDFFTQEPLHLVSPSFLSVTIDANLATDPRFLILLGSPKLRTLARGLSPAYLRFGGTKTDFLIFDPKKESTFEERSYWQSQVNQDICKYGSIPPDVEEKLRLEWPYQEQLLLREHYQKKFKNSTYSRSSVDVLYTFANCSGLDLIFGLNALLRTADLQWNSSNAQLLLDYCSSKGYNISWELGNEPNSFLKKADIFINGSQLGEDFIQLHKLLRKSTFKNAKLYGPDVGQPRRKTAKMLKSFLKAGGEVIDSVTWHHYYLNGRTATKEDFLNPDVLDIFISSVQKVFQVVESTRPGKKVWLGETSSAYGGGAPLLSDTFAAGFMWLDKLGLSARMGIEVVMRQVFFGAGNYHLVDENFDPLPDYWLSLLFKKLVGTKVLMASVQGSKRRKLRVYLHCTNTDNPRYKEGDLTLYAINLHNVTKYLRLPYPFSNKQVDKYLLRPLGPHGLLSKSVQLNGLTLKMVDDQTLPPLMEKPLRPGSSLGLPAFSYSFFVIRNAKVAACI

[2] = In vitro anti-angiogenic activity in Human endothelial cells; assay type: functional, cell-based; conditions: endothelial cell
[3] = target: Cytochrome P450 2C9 (Homo sapiens, UniProt P11712); experiment: In vitro inhibitory concentration against Cytochrome P450 2C9; assay type: ADME
Sequence of Cytochrome P450 2C9 (P11712 whole entry): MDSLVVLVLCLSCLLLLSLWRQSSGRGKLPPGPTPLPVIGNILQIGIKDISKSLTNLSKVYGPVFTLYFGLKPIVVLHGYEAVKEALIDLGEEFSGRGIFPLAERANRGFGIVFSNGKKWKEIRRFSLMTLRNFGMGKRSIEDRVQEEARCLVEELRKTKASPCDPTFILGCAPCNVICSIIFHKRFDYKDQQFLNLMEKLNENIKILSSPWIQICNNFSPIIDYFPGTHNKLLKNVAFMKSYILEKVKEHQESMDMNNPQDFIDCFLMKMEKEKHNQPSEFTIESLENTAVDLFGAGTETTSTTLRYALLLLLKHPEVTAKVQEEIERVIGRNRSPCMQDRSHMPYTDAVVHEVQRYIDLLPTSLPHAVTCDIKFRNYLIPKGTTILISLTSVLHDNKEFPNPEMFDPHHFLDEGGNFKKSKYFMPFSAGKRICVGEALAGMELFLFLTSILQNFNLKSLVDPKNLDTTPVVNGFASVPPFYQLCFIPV

## O=C(O)Cc1nc(-c2ccc(-c3ccc(NC(=O)c4ccccc4)cc3Cl)o2)cs1
[1]
  IC50: > 30 µM

## N#Cc1cccc(C(=O)Nc2ccc(-c3ccc(-c4csc(CC(=O)O)n4)o3)c(Cl)c2)c1
[2]
  IC50: > 20 µM

## O=C(O)Cc1ccc2oc(-c3ccc(NC(=O)/C=C/c4cccc(Br)c4)cc3Cl)nc2c1
[2]
  IC50: 20 µM

## O=C(O)Cc1ccc2oc(-c3ccc(NC(=O)/C=C/c4ccc(Br)cc4)c(F)c3)nc2c1
[2]
  IC50: 1 µM
[3]
  IC50: > 30 µM

## O=C(O)Cc1nc(-c2ccc(-c3ccc(NC(=O)/C=C/c4ccccc4)cc3Cl)o2)cs1
[2]
  IC50: 15 µM

## O=C(O)Cc1nc(-c2ccc(-c3ccc(NC(=O)/C=C/c4ccc(OC(F)(F)F)cc4)cc3Cl)o2)cs1
[2]
  IC50: 20 µM

## O=C(O)Cc1nc(-c2ccc(-c3ccc(NC(=O)c4ccc(OC(F)(F)F)cc4)cc3Cl)o2)cs1
[2]
  IC50: 0.5 µM

## COc1ccc(/C=C/C(=O)Nc2ccc(-c3ccc(-c4csc(CC(=O)O)n4)o3)c(Cl)c2)cc1
[2]
  IC50: 5 µM

## O=C(O)Cc1ccc2oc(-c3ccc(NC(=O)c4ccc(Br)cc4)cc3Cl)nc2c1
[1]
  IC50: > 10 µM

## O=C(O)Cc1nc(-c2ccc(-c3ccc(NC(=O)c4ccc(C(F)(F)F)cc4)cc3Cl)o2)cs1
[2]
  IC50: 7.5 µM

## O=C(O)Cc1ccc2oc(-c3ccc(NC(=O)/C=C/c4cccc(Cl)c4)c(F)c3)nc2c1
[2]
  IC50: 7.5 µM

## O=C(O)Cc1ccc2oc(-c3ccc(NC(=O)/C=C/c4ccc(Cl)cc4Cl)cc3Cl)nc2c1
[2]
  IC50: 5 µM

## O=C(O)Cc1ccc2oc(-c3ccc(NC(=O)/C=C/c4ccc(Br)cc4)cc3Cl)nc2c1
[2]
  IC50: 7.5 µM

## O=C(O)Cc1ccc2oc(-c3ccc(NC(=O)/C=C/c4cccc(Br)c4)cc3)nc2c1
[2]
  IC50: > 20 µM

## O=C(O)Cc1ccc2oc(-c3ccc(NC(=O)/C=C/c4ccc(Br)cc4)cc3)nc2c1
[2]
  IC50: 20 µM

## O=C(O)Cc1nc(-c2ccc(-c3ccc(NC(=O)/C=C/c4ccc(Br)cc4)cc3Cl)o2)cs1
[2]
  IC50: 1 µM

## N#Cc1ccc(/C=C/C(=O)Nc2ccc(-c3nc4cc(CC(=O)O)ccc4o3)cc2F)cc1
[2]
  IC50: 1 µM

## O=C(O)Cc1ccc2oc(-c3ccc(NC(=O)/C=C/c4ccc(Cl)cc4Cl)c(F)c3)nc2c1
[2]
  IC50: > 20 µM

## O=C(O)Cc1nc(-c2ccc(-c3ccc(NC(=O)/C=C/c4ccc(Cl)cc4Cl)cc3Cl)o2)cs1
[2]
  IC50: > 20 µM

## O=C(O)Cc1ccc2oc(-c3ccc(NC(=O)/C=C/c4cccc(Cl)c4F)c(F)c3)nc2c1
[2]
  IC50: 5 µM

## COc1ccc(NC(=O)/C=C/c2ccc(-c3nc4cc(CC(=O)O)ccc4o3)cc2)cc1OC
[1]
  IC50: > 10 µM

## O=C(O)Cc1nc(-c2ccc(-c3ccc(NC(=O)c4ccc(Cl)cc4Cl)cc3Cl)o2)cs1
[2]
  IC50: 0.5 µM

## O=C(O)Cc1nc(-c2ccc(-c3ccc(NC(=O)c4ccc(Cl)cc4)cc3Cl)o2)cs1
[2]
  IC50: 2 µM

## O=C(O)Cc1ccc2oc(-c3ccc(NC(=O)/C=C/c4ccc(Cl)c(Cl)c4)c(F)c3)nc2c1
[2]
  IC50: 0.2 µM

## COc1ccccc1NC(=O)/C=C/c1ccc(-c2nc3cc(CC(=O)O)ccc3o2)cc1
[1]
  IC50: > 10 µM

## O=C(O)Cc1ccc2oc(-c3ccc(NC(=O)/C=C/c4cccc(Br)c4)c(F)c3)nc2c1
[2]
  IC50: 1 µM

## O=C(O)Cc1ccc2oc(-c3ccc(NC(=O)/C=C/c4ccccc4)cc3Cl)nc2c1
[1]
  IC50: > 30 µM

## O=C(O)Cc1ccc2oc(-c3ccc(NC(=O)/C=C/c4ccc(F)c(Cl)c4)c(F)c3)nc2c1
[2]
  IC50: 1 µM
